Results taken from publication PMC6615261, “Repurposing Azithromycin and Rifampicin Against Gram-Negative Pathogens by Combination With Peptidomimetics” (Frontiers in Cellular and Infection Microbiology, 2019).

Tests used:
K. pneumoniae ST258 [1] = assay: Potentiation of additional antibiotics (COMPAN1F plates), MIC; format: cell-based, Klebsiella pneumoniae
Procedure: (§1) Minimal inhibitory concentrations (MICs) of peptidomimetics, antibiotics and their combinations were determined by broth microdilution according to the Clinical Laboratory Standards Institute performance standards (Clinical and Laboratory Standards Institute, [2013]). […] Since rifampicin and azithromycin mainly are used to treat infections with Gram-positive pathogens only CLSI clinical breakpoints were available for such bacteria. […] Potentiation of additional antibiotics by peptidomimetics was determined by using commercial 96-well plates containing varied concentrations of standard antibiotics (COMPAN1F; Trek Diagnostic Systems Inc.). The peptidomimetics were added immediately prior to inoculation with pathogen, and then MICs were determined as above. The MICs of peptidomimetic/antibiotic combinations were determined according to the method above, and the concentration ratios were selected based upon checkerboard results with 2:1 and 1:4 ratio of peptidomimetic with rifampicin or azithromycin, respectively. Minimal bactericidal concentrations (MBCs) were determined by using growth-curve assay plates. MIC plates were prepared as above, and then the plates were incubated at 37°C with continuous shaking. Growth was recorded at 10 min intervals as optical density (OD) at 600 nm during 24 h. At 24 h, for wells without growth, a sample was diluted 10-fold in sterile saline (0.9% sodium chloride) and plated onto MHA, following CLSI guidelines (Clinical and Laboratory Standards Institute, [1999]).

E. coli ST131 [2] = assay: as above; format: cell-based, Escherichia coli
Procedure: as §1

E. coli ST131 [3] = details: checkerboard
Procedure: (§2) The potential synergistic effects in peptidomimetic-antibiotic combinations were assessed by using a two-dimensional checkerboard assay (Garcia, [2010]). Briefly, twofold dilutions of peptide and antibiotic were prepared in MBH II media along the X- and Y-axis, respectively, in 96-well plates. The inoculum was added to the plates, and subsequently these were incubated for 18–20 h. All steps for inoculum preparation and broth microdilution were in accordance with the CLSI guidelines (Clinical and Laboratory Standards Institute, [2013]). The fractional inhibitory concentration index (FICI) was calculated as [MICA(A+B)/MICA(alone)] + [MICB(A+B)/MICB(alone)], where MICA(A+B) represents the MIC of antibiotic (A) in combination with peptidomimetic (B), while MICB(A+B) represents the MIC of peptidomimetic (B) in combination with antibiotic (A). MICA(alone) and MICB(alone) represent the MIC of each compound individually. FICI values of ≤0.5 were interpreted as synergy.

K. pneumoniae ST258 [4] = details: checkerboard
Procedure: as §2

P. aeruginosa ATCC 27853 = details: P. aeruginosa ATCC 27853; checkerboard
Procedure: as §2

[5] = test system: E. coli clinical isolates and reference strains; assay: MIC of fixed-ratio peptidomimetic 1-antibiotic combinations in clinical isolates and reference strains; format: cell-based, Escherichia coli; details: in combination with 0.5–1 μM peptidomimetic 1
Text: (§3) Bacterial strains used in this study comprise MDR clinical isolates of E. coli ST131 (Cerquetti et al., [2010]) and K. pneumoniae ST258 (Jana et al., [2017]), and American type culture collection (ATCC) strains: ATCC 25922 (E. coli), ATCC 13883 (K. pneumoniae), and ATCC 27853 (P. aeruginosa). Additional clinical isolates of E. coli, K. pneumoniae, and P. aeruginosa resistant to β-lactams (including carbapenems and cephalosporins) were provided by Laurent Poirel, Université de Fribourg, Switzerland. The following growth media was routinely used for bacterial culturing: Luria-Burtani (LB), cation-adjusted Mueller-Hinton agar (MHA) and broth (MHB II). All assays were performed in cation-adjusted MHA or MHB II. Antibiotics were purchased from Sigma-Aldrich and the peptidomimetic collection (Table S1) was curated and provided by Henrik Franzyk. […]
(§4) Minimal inhibitory concentrations (MICs) of peptidomimetics, antibiotics and their combinations were determined by broth microdilution according to the Clinical Laboratory Standards Institute performance standards (Clinical and Laboratory Standards Institute, [2013]). […] Potentiation of additional antibiotics by peptidomimetics was determined by using commercial 96-well plates containing varied concentrations of standard antibiotics (COMPAN1F; Trek Diagnostic Systems Inc.). The peptidomimetics were added immediately prior to inoculation with pathogen, and then MICs were determined as above. The MICs of peptidomimetic/antibiotic combinations were determined according to the method above, and the concentration ratios were selected based upon checkerboard results with 2:1 and 1:4 ratio of peptidomimetic with rifampicin or azithromycin, respectively. Minimal bactericidal concentrations (MBCs) were determined by using growth-curve assay plates. […] Growth was recorded at 10 min intervals as optical density (OD) at 600 nm during 24 h. […]

[6] = test system: P. aeruginosa clinical isolates and reference strains; assay: as above; format: cell-based, Pseudomonas aeruginosa; details: with 1–8 μM of 1
Text: as §3, §4

E. coli ST131 [7] = details: E. coli ST131; growth-curve assay
Procedure: as §1

K. pneumoniae ST258 [8] = details: K. pneumoniae ST258; growth-curve assay
Procedure: as §1

P. aeruginosa ATTC 27853 = details: P. aeruginosa ATTC 27853; growth-curve assay
Procedure: as §1

SMILES: CO[C@H]1/C=C/O[C@@]2(C)Oc3c(C)c(O)c4c(O)c(c(/C=N/N5CCN(C)CC5)c(O)c4c3C2=O)NC(=O)/C(C)=C\C=C\[C@H](C)[C@H](O)[C@@H](C)[C@@H](O)[C@@H](C)[C@H](OC(C)=O)[C@@H]1C [Rifampicin, rifampicin]
- MIC of antibiotic in presence of peptidomimetic 1 (K. pneumoniae ST258 [1]; + 1 μM peptidomimetic 1): ≤1 µg/mL
- MIC of antibiotic in presence of peptidomimetic 1 (K. pneumoniae ST258 [1]; + 1 μM peptidomimetic 1, listed as rifampicin): below 1 μg/mL
- MIC of antibiotic in presence of peptidomimetic 15 (K. pneumoniae ST258 [1]; + 1 μM peptidomimetic 15): ≤1 µg/mL
- MIC of antibiotic in presence of peptidomimetic 15 (K. pneumoniae ST258 [1]; + 1 μM peptidomimetic 15, listed as rifampicin): below 1 μg/mL
- MIC of antibiotic in presence of peptidomimetic 26 (K. pneumoniae ST258 [1]; + 1 μM peptidomimetic 26): ≤1 µg/mL
- MIC of antibiotic in presence of peptidomimetic 26 (K. pneumoniae ST258 [1]; + 1 μM peptidomimetic 26, listed as rifampicin): below 1 μg/mL
- MIC (K. pneumoniae ST258 [1]; Klebsiella pneumoniae, no peptidomimetic, read-out: MIC of antibiotic alone): > 2 µg/mL
- MIC of antibiotic alone (K. pneumoniae ST258 [1]; no peptidomimetic): >2 µg/mL
- MIC of antibiotic in presence of peptidomimetic 26 (E. coli ST131 [2]; + 0.25 μM peptidomimetic 26): ≤1 µg/mL
- MIC of antibiotic in presence of peptidomimetic 26 (E. coli ST131 [2]; + 0.25 μM peptidomimetic 26, listed as rifampicin): below 1 μg/mL
- MIC of antibiotic in presence of peptidomimetic 1 (E. coli ST131 [2]; + 0.5 μM peptidomimetic 1): ≤1 µg/mL
- MIC of antibiotic in presence of peptidomimetic 1 (E. coli ST131 [2]; + 0.5 μM peptidomimetic 1, listed as rifampicin): below 1 μg/mL
- MIC of antibiotic in presence of peptidomimetic 15 (E. coli ST131 [2]; + 0.5 μM peptidomimetic 15): ≤1 µg/mL
- MIC of antibiotic in presence of peptidomimetic 15 (E. coli ST131 [2]; + 0.5 μM peptidomimetic 15, listed as rifampicin): below 1 μg/mL
- MIC (E. coli ST131 [2]; Escherichia coli, no peptidomimetic, read-out: MIC of antibiotic alone): > 2 µg/mL
- MIC of antibiotic alone (E. coli ST131 [2]; no peptidomimetic): >2 µg/mL
- Antibiotic MIC alone (E. coli ST131 [3]): 4 µg/mL
- Antibiotic MIC alone (K. pneumoniae ST258 [4]): 16 µg/mL
- Antibiotic MIC alone (P. aeruginosa ATCC 27853): 32 µg/mL
- Antibiotic concentration to which most E. coli isolates proved susceptible in combination [5]: 0.25 to 0.5 µg/mL
- MIC of antibiotic in combination, P. aeruginosa isolates (typical) [6]: 0.5 µg/mL
- MBC (antibiotic alone) (E. coli ST131 [7]): >4 µg/mL
- MIC (antibiotic alone) (E. coli ST131 [7]): >4 µg/mL
- MBC (antibiotic alone) (K. pneumoniae ST258 [8]): >16 µg/mL
- MIC (antibiotic alone) (K. pneumoniae ST258 [8]): >16 µg/mL
- MBC (antibiotic alone) (P. aeruginosa ATTC 27853): >64 µg/mL
- MIC (antibiotic alone) (P. aeruginosa ATTC 27853): >64 µg/mL
